Reference: patent publication US5977435A, “Plant phosphatases” (Performance Plants, Inc., priority 1997, dated 1999)
Where a name gives a salt, the structure may show the parent alone. Read-outs that look alike come from different tables or passages of the source.

Columns and labels:
potato phosphatase [1] = target: T1, potato phosphatase (Solanum tuberosum, UniProt Q6J5M8); assay: biochemical; format: biochemical; design: mature chain from Thr30, C-terminus not determined
T1 sequence (Q6J5M8 with tags, fused parts or gaps V118I/E238V/S277N/V282G/E319A/A394T/S415A/T416I/D418E/I426Y/H428S/N437A): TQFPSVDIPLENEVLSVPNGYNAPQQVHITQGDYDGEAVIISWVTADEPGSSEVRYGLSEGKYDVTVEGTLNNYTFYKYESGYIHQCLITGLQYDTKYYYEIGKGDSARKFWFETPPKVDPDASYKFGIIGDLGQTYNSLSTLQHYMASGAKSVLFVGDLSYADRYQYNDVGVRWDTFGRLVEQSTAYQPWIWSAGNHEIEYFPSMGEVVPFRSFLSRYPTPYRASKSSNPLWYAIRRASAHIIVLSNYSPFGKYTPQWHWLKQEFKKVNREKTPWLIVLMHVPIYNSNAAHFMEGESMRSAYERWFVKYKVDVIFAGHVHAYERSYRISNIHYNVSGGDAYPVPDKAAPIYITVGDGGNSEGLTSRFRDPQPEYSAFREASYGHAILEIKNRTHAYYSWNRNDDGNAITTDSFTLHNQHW
Experimental: Enzyme activity in the presence of effectors is expressed relative to the control set at 100%.
(§1) Assays were initiated by the addition of enzyme preparation. One unit of phosphatase activity is defined as the quantity of enzyme that would catalyze the hydrolysis of 1 […] of substrate/min at 25° C.

potato phosphatase [2] = target: T1, potato phosphatase; assay: Phosphatase assay B, substrate specificity; conditions: for Vmax: pH 5.8, 25° C; for activity of purified enzyme with compound as substrate: tested at 5 mM
Experimental: Phosphatase activity was determined using assay B and a wide range of compounds, tested at a total concentration of 5 mM unless otherwise specified.
Phosphatase (0.05 units) was incubated in 1.5 mL cuvettes with 0.9 mL of 50 mM MES-NaOH (pH 5.8) containing 4 mM MgCl2 and an alternative substrate (5 mM unless otherwise indicated) for 6 min at 25° C. Reactions were terminated by the sequential addition of 0.1 mL reagent A (3 M H2 SO4 containing 20 mM ammonium molybdate) and […] of 1% (v/v) Triton X-100. Samples were incubated at 25° C. for 20 min and the A660 was determined. To calculate activities, a standard curve over the range of […] Pi was constructed for each set of assays. Assays were performed in triplicate and controls were run for background amounts of Pi present at each substrate concentration by adding reagent A before the enzyme.

potato phosphatase [3] = target: T1, potato phosphatase; assay: biochemical; format: biochemical; design: mature chain from Thr30, C-terminus not determined; conditions: for activation of the phosphatase: 4 mM, added as Cl- salt, Ca, Co, Mn with no added Mg2+
Experimental: Unless otherwise stated all kinetic studies of the potato phosphatase were performed with PEP using assay A (infra).
The phosphatase was activated approximately 40% in the presence of saturating (4 mM) Mg^2+ (added as MgCl2). Ca^2+, Co^2+, and Mn^2+ were individually tested as Cl^- salts at 4 mM, with no added Mg^2+, and found to uniformly activate the enzyme by about 30%. […]. […] All subsequent kinetic studies were conducted in the presence of 4 mM MgCl2.
as §1

[4] = system: potato tuber phosphotyrosyl proteins; assay: Dephosphorylation of potato tuber phosphotyrosyl proteins by potato tuber phosphatase; format: biochemical, Solanum tuberosum; conditions: 1 mM present during incubation
Experimental: A desalted potato tuber extract was incubated at 25° C. in the absence (-) and presence (+) of 30 units/mL purified potato tuber phosphatase. Aliquots were removed at 2 and 19 h and analyzed by immunoblotting using anti-(P-Tyr) IgG (Kamps and Sefton, 1988). The relative P-Tyr content of the 7 antigenic polypeptides was estimated by laser densitometric quantification of the immunoblots as described in the examples. Unless otherwise noted, all values represent the means±SE of triplicate determinations. ^a, the mean of duplicate determinations.
Electroblotting was performed by the method of Moorhead and Plaxton (1990), with the addition of […] o-vanadate to the transfer buffer when maintenance of phosphotyrosyl residues was desired. All immunoblots to be probed with the anti-(black mustard PEP-specific phosphatase) IgG (Duff et al, 1991a) were first pre-treated with sodium m-periodate according to Laine (1988) so as to oxidize antigenic oligosaccharide chains of endogenous tuber glycoproteins. Immunological detection of phosphotyrosylated tuber proteins using anti-(P-Tyr) IgG (Kamps and Sefton, 1988) was performed as referenced above except that the blocking buffer contained 5% (w/v) bovine serum albumin (fraction V) and 1% (w/v) ovalbumin instead of 3% (w/v) defatted milk powder.
Antigenic polypeptides were visualized using an alkaline-phosphatase-taggedsecondary antibody (Moorhead and Plaxton, 1990). Immunological specificities were confirmed by performing immunoblots in which rabbit preimmune serum was substituted for the affinity-purified IgGs. An LKB Ultroscan XL Enhanced Laser Densitometer was used to scan indicated immunoblots. Densitometric data were analysed using the LKB Gelscan XL software (version 2.1). Immunoreactive polypeptides were quantified in terms of their relative absorbance at 633 nm wavelength (A633).
Peeled and diced potato tuber tissue (5 g) was homogenized with a Polytron in 1 volume of 100 mM MES-NaOH (pH 5.8) containing 2 mM PMSF, 2 mM DTT, and 1 mM EDTA. The homogenate was centrifuged for 10 min at 13,000 g in an Eppendorf microfuge, and a 3-mL aliquot of the supernatant fluid was passed at 4° C. through a BioRad Econo-Pac 10DG desalting column that had been pre-equilibrated in homogenization buffer lacking PMSF. Aliquots (0.1 mL) of the desalted crude extract were incubated at 25° C. with and without 3 units of the purified potato phosphatase. Samples were removed at 0, 2 and 19 h and analyzed by immunoblotting using the anti-(P-Tyr) IgG as described supra. Laser densitometric scanning and immunoquantification of the blots was performed as described supra.

[5] = purified potato phosphatase, assay B
[6] = pH 5.8, read-out: Relative Activity
[7] = 5 mM; PEP 0.25 mM; no effect = ±15% control activity
[8] = pH 5.8; read-out: Relative Activity
[9] = addition 5 mM; PEP 0.25 mM; control = 100%
[10] = addition 0.001 mM; PEP 0.25 mM; control = 100%

C=C1[C@@H](O)[C@@H]2O[C@]3(CC[C@H](/C=C/[C@@H](C)[C@@H]4CC(C)=C[C@@]5(O[C@H](C[C@@](C)(O)C(=O)O)CC[C@H]5O)O4)O3)CC[C@H]2O[C@@H]1[C@@H](O)C[C@H](C)[C@H]1O[C@@]2(CCCCO2)CC[C@H]1C [okadaic acid]
effect on enzyme activity (potato phosphatase [1]; 1 μM; PEP 0.25 mM; no effect = ±15% control activity): no effect

C=C(OP(=O)(O)O)C(=O)O [PEP]
Vmax (potato phosphatase [2]; [5]): 764 units/mg

O=C(O)CN(CCN(CC(=O)O)CC(=O)O)CC(=O)O [EDTA]
activity at 5000 µM (potato phosphatase [1]; [6]): 32% | inhibition at 5000 µM (potato phosphatase [3]; pH 5.8, read-out: reduction of activity): ~65%

NH4 Cl
effect on enzyme activity (potato phosphatase [1]; [7]): no effect

N[C@@H](CCC(=O)N[C@@H](CS)C(=O)NCC(=O)O)C(=O)O [GSH]
activity at 5000 µM (potato phosphatase [1]; [6]): 131%

O=C(O)CN(CCOCCOCCN(CC(=O)O)CC(=O)O)CC(=O)O [EGTA]
activity at 5000 µM (potato phosphatase [1]; [8]): 72%

[Cl-].[K+] [KCl]
effect on enzyme activity (potato phosphatase [1]; [7]): no effect

N[C@@H](CC(=O)O)C(=O)O [Asparatate]
Relative Activity (potato phosphatase [1]; [9]): 64%

[Mn+2] [Mn^2+]
activation of the phosphatase (potato phosphatase [3]): about 30%

[Cl-].[Cl-].[Zn+2] [ZnCl2]
inhibition of phosphatase activity (potato phosphatase [3]; 5 mM, in place of added Mg2+): completely inhibited

O=P(O)(O)OP(=O)(O)O [PPi]
Km (potato phosphatase [2]; apparent Km, purified potato phosphatase, assay B): 4.42 mM | Vmax (potato phosphatase [2]; [5]): 1728 units/mg

[Co+2] [Co^2+]
activation of the phosphatase (potato phosphatase [3]): about 30%

Nc1ncnc2c1ncn2[C@@H]1O[C@H](COP(=O)(O)OP(=O)(O)O)[C@@H](O)[C@H]1O [Mg-ADP]
Vmax (potato phosphatase [2]; [5]): 46 units/mg

[Cl-].[Cl-].[Mg+2] [Mg^2+]
activation of the phosphatase (potato phosphatase [3]): approximately 40%

[Ca+2] [Ca^2+]
activation of the phosphatase (potato phosphatase [3]): about 30%

O=C1O[C@H]([C@@H](O)CO)C(O)=C1O [Ascorbate]
activity at 5000 µM (potato phosphatase [1]; [8]): 12%

CCN1C(=O)C=CC1=O [N-ethylmaleimide]
effect on enzyme activity after preincubation of enzyme (potato phosphatase [1]; 1 mM, preincubation up to 2 min at 25° C): no effect

[F-].[Na+] [NaF]
Relative Activity (potato phosphatase [1]; [9]): 56%

NC(CCC(=O)O)C(=O)O (stereo not drawn) [Glutaamate]
activity at 5000 µM (potato phosphatase [1]; [8]): 30%

O=C(O)C(O)C(O)C(=O)O (stereo not drawn) [tartrate]
effect on enzyme activity (potato phosphatase [1]; [7]): no effect

[Cl-].[Na+] [NaCl]
effect on enzyme activity (potato phosphatase [1]): no effect

C[C@@H](OP(=O)(O)O)[C@H](N)C(=O)O [P-Tbr]
Vmax (potato phosphatase [2]; [5]): 99 units/mg

O=P(O)(O)OC1C(OP(=O)(O)O)C(OP(=O)(O)O)C(OP(=O)(O)O)C(OP(=O)(O)O)C1OP(=O)(O)O (stereo not drawn) [Phytate, the salt of 1,2,3,4,5,6-cyclohexanehexolphosphoric acid]
activity at 100 µM (potato phosphatase [1]; [8]): 48%

Molybdate
Relative Activity (potato phosphatase [1]; [10]): 40% | Relative Activity (potato phosphatase [1]; addition 0.01 mM; PEP 0.25 mM; control = 100%): 7% | Relative Activity (potato phosphatase [1]; addition 1 mM; PEP 0.25 mM; control = 100%): 0%

Nc1ncnc2c1ncn2[C@@H]1O[C@H](COP(=O)(O)O)[C@@H](O)[C@H]1O [AMP]
activity of purified enzyme with compound as substrate (potato phosphatase [2]; assay B): little or no activity

O=C(O)CC(O)(CC(=O)O)C(=O)O [Mg-citrate]
effect on enzyme activity (potato phosphatase [1]; [7]): no effect

O=P(O)(O)OC1O[C@H](CO)[C@@H](O)[C@H](O)[C@H]1O (stereo partly drawn) [Glc-1-P]
activity of purified enzyme with compound as substrate (potato phosphatase [2]; assay B): little or no activity

[O]=[V]([O-])([O-])[O-] [Vanadate]
effect on the phosphatase-caused decrease in protein P-Tyr content [4]: negated | Relative Activity (potato phosphatase [1]; addition 0.005 mM; PEP 0.25 mM; control = 100%): 40% | Relative Activity (potato phosphatase [1]; addition 0.05 mM; PEP 0.25 mM; control = 100%): 7%

B1: Phosvitin: egg yolk storage phosphoprotein (protein)
chain: AEFGTEPDAKTSSSSSSASSTATSSSSSSASSPNRKKPMDEEENDQVKQARNKDASSSSRSSKSSNSSKRSSSKSSNSSKRSSSSSSSSSSSSRSSSSSSSSSSNSKSSSSSSKSSSSSSRSRSSSKSSSSSSSSSSSSSSKSSSSRSSSSSSKSSSHHSHSHHSGHLNGSSSSSSSSRSVSHHSHEHHSGHLEDDSSSSSSSSVLSKIWGRHEIYQ
modifications: phosphoserine (Ser is the predominant phosphorylated amino acid of phosvitin)
notes: egg yolk storage phosphoprotein
Relative Activity (potato phosphatase [1]; [10]): 19% | phosphoprotein phosphatase activity (potato phosphatase [2]; phosvitin at 50 μg/ml (125 .eta.M)): 220 units/mg
